The target in test [1] is T1, CB2 (Homo sapiens, UniProt P34972). The following applies: read-out: Ki CB2; partial agonist on CB2; ref Dhopeshwarkar et al., 2017; cited from earlier work.
For the next test, the target named is CB1. As to conditions: read-out: Ki CB1; antagonist on CB1; ref Dhopeshwarkar et al., 2017; cited from earlier work.
Test [2] addresses T1, CB2. Nature of the test: cell-based. It is filed as cell-based. As to conditions: for functional behaviour at CB2: cAMP functional assay.

We go through 3 molecules from paper PMC8247115 (Cell, 2020).

T1 sequence (P34972 whole entry): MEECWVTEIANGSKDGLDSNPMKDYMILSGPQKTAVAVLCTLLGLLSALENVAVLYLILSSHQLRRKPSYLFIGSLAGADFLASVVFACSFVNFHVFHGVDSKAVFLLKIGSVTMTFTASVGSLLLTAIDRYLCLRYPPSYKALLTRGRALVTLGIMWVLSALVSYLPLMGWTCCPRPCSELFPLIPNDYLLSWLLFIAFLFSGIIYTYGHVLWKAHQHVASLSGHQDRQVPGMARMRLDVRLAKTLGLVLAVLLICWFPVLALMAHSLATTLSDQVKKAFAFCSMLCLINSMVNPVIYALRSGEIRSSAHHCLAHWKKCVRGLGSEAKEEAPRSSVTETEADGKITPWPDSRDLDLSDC

For the molecule `COc1ccc2c(c1)c(CCN1CCOCC1)c(C)n2C(=O)c1cccc(Cl)c1Cl` [GW-405,833], the Ki on CB2 [1] is 0.00392 ± 0.00158 µM; at CB1 it was 4.77 ± 1.68 µM.

Consider `CCN(CC)c1ccc(CN(Cc2cc(OC)c(OC)c(OC)c2)S(=O)(=O)/C=C/c2ccccc2)cc1` [XIE55, (E)-N-(4-(diethylamino)benzyl)-2-phenyl-N-(3,4,5-trimethoxybenzyl)ethene-1-sulfonamide], for which, at CB2 [2], a half-maximal effect (EC50) was put at 1.5 ± 0.4 µM and the “functional behaviour at CB2” value was “inverse agonist”.

Regarding `CCN(CC)c1ccc(CN(Cc2cc(OC)c(OC)c(OC)c2)S(=O)(=O)c2cccs2)cc1` [XIE57, N-(4-(diethylamino)benzyl)-N-(3,4,5-trimethoxybenzyl)thiophene-2-sulfonamide], at CB2 [2], the EC50 amounted to 6.9 ± 2.9 µM and the “functional behaviour at CB2” value is on record as “partial agonist”.

As usually defined, the Ki is a measure of affinity in units of concentration, obtained from inhibition or displacement. Usually EC50 stands for the midpoint of the concentration-response curve. Read a high EC50 as a less potent agent.
